Legend:
recombinant human PEPD = recombinant human PEPD (Homo sapiens (Human), UniProt P12955); assay: PEPD substrate assay (Ala-Pro cleavage, L-alanine assay kit); assay type: biochemical
Protocol: Protein purification. Human prolidase (PEPD) was generated and purified. XPNPEP1 in pET15-b containing a 6× His tag was expressed in E. coli Rosetta DE3 cells.
Substrate assays. For the PEPD assay, a solution of substrate (Ala-Pro) was prepared in DMSO. 24 μL of 50 nM recombinant human PEPD were added to a 384-well, black, clear-bottom plate (Corning) with 1 μL dipeptide Ala-Pro (final conc. 40 μM). […] For the AMC reporter assays, experiments were performed with cell lysates. 5 μL solution of substrate (2.5 mM Ala-AMC) was added the mixture of 10 μL HEK293T cell lysates (2.5 mg/ml) and 10 μL of indicated compounds in a 384-well, black, clear-bottom plate (Corning) to initiate the reaction. Substrate cleavage was measured as increasing fluorescence signal (Ex/Em: 380/460 nm) recorded at 25° C. for 20 mins. […] H-Lys(abz)-Pro-Pro-pNA substrate was added to a final concentration of 100 μM, and fluorescence was monitored (Ex/Em: 320/410) for 60 mins.

XPNPEP1 = XPNPEP1 (Homo sapiens (Human), UniProt Q9NQW7); assay: XPNPEP1 substrate assay (H-Lys(abz)-Pro-Pro-pNA); assay type: biochemical
XPNPEP1, sequence (Q9NQW7 whole entry): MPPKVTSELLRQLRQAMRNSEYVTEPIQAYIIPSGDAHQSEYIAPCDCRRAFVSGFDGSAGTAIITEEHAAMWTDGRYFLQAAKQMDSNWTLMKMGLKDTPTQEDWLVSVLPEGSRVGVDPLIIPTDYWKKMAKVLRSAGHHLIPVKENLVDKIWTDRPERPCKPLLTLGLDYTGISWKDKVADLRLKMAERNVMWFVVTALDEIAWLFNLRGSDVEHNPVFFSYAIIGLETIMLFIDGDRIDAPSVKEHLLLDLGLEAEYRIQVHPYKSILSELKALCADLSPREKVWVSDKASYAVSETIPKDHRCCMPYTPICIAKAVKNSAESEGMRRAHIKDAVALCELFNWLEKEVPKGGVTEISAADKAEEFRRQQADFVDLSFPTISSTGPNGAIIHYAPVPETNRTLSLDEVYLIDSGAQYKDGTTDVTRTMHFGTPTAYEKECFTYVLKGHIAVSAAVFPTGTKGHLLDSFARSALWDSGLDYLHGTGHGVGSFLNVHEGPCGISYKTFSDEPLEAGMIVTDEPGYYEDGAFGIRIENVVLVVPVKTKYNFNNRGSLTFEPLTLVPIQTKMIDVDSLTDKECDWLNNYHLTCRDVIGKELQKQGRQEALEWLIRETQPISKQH
Protocol: Protein purification. Human prolidase (PEPD) was generated and purified. XPNPEP1 in pET15-b containing a 6× His tag was expressed in E. coli Rosetta DE3 cells. Cells were induced with IPTG for 16 h at 37° C., pelleted and lysed in buffer A (20 mM Tris-HCl (pH 7.9), 500 mM NaCl, and 10% (v/v) glycerol) by sonication. Affinity purification chromatography was performed using TALON resin and according to previously published protocols (Li et al., 2008).
Substrate assays. For the PEPD assay, a solution of substrate (Ala-Pro) was prepared in DMSO. 24 μL of 50 nM recombinant human PEPD were added to a 384-well, black, clear-bottom plate (Corning) with 1 μL dipeptide Ala-Pro (final conc. 40 μM). Alanine liberated was measured as increasing fluorescence signal (Resorufin, Ex/Em: 535/587 nm) recorded at 25° C. using an L-alanine assay kit (Abcam, ab83394) at 25° C. according to manufacturer's instructions. For the AMC reporter assays, experiments were performed with cell lysates. 5 μL solution of substrate (2.5 mM Ala-AMC) was added the mixture of 10 μL HEK293T cell lysates (2.5 mg/ml) and 10 μL of indicated compounds in a 384-well, black, clear-bottom plate (Corning) to initiate the reaction. Substrate cleavage was measured as increasing fluorescence signal (Ex/Em: 380/460 nm) recorded at 25° C. for 20 mins. For XPNPEP1 enzymes (XPNPEP1 3.5 nM) were plated on a black 384-well clear bottom plate and treated with the indicated doses of compounds. H-Lys(abz)-Pro-Pro-pNA substrate was added to a final concentration of 100 μM, and fluorescence was monitored (Ex/Em: 320/410) for 60 mins.

MV4;11 WT cells = assay: CellTiter-Glo cell viability, WT MV4;11 cells; assay type: cell-based; conditions: 24 h, CTG
Protocol: (§1) CellTiter-Glo cell viability and CytoTox-Fluor cell death assays. Cells were plated (2,000 cells per well) in white, 384-well clear-bottom plates (Corning) using an EL406 Microplate Washer/Dispenser (BioTek) in 25 μL final volume of medium. To the cell plates were added compounds at different concentrations using a pintool (CyBio) and the plates were allowed to incubate in the incubator. After incubation for indicated times, CytoTox-Fluor reagent (Promega, G9262) was added according to the manufacturer's protocol. The assay plates were then incubated for another 30 min before fluorescence was recorded using a Cytation 5 Cell Imaging Multi-Mode Reader (BioTek). Next, CellTiter-Glo reagent (Promega, G7573) was subsequently added to the assay plates following the manufacturer's protocol. Assay plates were shaken on an orbital shaker for 2 min and incubated at 25° C. for 10 min. Luminescence was then read using a Cytation 5 Cell Imaging Multi-Mode Reader (BioTek).

[1] = Stability in cell culture supernatants; assay type: in vitro ADME
MV4;11 CASP1-/- cells = assay: CellTiter-Glo cell viability, CASP1-/- MV4;11 cells; assay type: cell-based; conditions: Homo sapiens, MV4-11; 24 h, CTG
Protocol: Cloning. CASP1^−/− MV4;11 cells^12; CARD8^−/− MV4;11, THP-1, OCI-AML2 cells^14; DPP8/9^−/− THP-1^12; PEPD^−/−, XPNPEP1^−/−, PEPD XPNPEP1^−/− THP-1 cells were generated. Plasmids for CARD8 variants, CASP1, GSDMD, dTAG-CARD8^ZUC were cloned as described previously (Hollingsworth et al., 2021; Johnson et al., 2018; Sharif et al., 2021).
as §1

OCI-AML2 cells = assay: Propidium iodide uptake, OCI-AML2 cells; assay type: cell-based; conditions: 6.25 μM, compared to CQ31
Protocol: Propidium iodideflux analysis. 2×10^4 MV4;11 or OCI-AML2 cells were plated in 384-well, black, clear-bottom plate (Corning) in RPMI medium. Cells were then treated as indicated and propidium iodide (PI) was added at a final concentration of 10 μM. PI fluorescence was measured at (Ex/Em: 535/617 nm) recorded at 37° C. every 5 mins in a Cytation 5 Cell Imaging Multi-Mode Reader (BioTek). The obtained measurements were baseline corrected to vehicle/DMSO and normalized to maximum response.

N/TERT-1 keratinocytes = assay: Cell viability of N/TERT-1 keratinocytes (NLRP1 inflammasome); assay type: cell-based, human; conditions: VbP 10 μM, CQ compounds 20 μM, 24 h, CTG
Protocol: Cell Culture. HEK293T, THP-1, RAW264.7 cells were purchased from ATCC. MV4;11, OCI-AML2 cells were purchased from DSMZ. N/TERT1 cells were a gift from the Rheinwald Lab (Dickson et al., 2000). HEK293T and RAW264.7 cells were grown in Dulbecco's Modified Eagle's Medium (DMEM) with L-glutamine and 10% fetal bovine serum (FBS). N/TERT1 cells were grown in Keratinocyte serum free medium (KSFM) supplemented with 1× penicillin/streptomycin, bovine pituitary extract (25 μg/ml) and epidermal growth factor (EGF) (0.2 ng/ml). All other cell lines were grown in Roswell Park Memorial Institute (RPMI) medium 1640 with L-glutamine and 10% fetal bovine serum (FBS). All cells were grown at 37° C. in a 5% CO2 atmosphere incubator. Cell lines were regularly tested for mycoplasma using the MycoAlert™ Mycoplasma Detection Kit (Lonza).
as §1

[2] = test system: primary bone marrow-derived macrophages (BMDMs) and mouse RAW264.7 cells; assay: LDH release and GSDMD cleavage in BMDMs and RAW264.7 cells (mouse NLRP1); assay type: cell-based; conditions: VbP 10 μM, CQ31/CQ80 20 μM, 24 h
Protocol: Mouse BMDM isolation and culture. Bone marrow was harvested from the femurs and tibias of 7-12-week-old C57BL/6J mice. Briefly, femurs and tibias were harvested from mice and crushed with a mortar and pestle in cold 1×PBS supplemented with 2.5% FBS. The mixture was passed through a 70-μm nylon cell strainer. RBCs were lysed for 4-5 min on ice in 1×RBC lysis buffer (Biolegend) and cells were centrifuged at 300×g for 5 min at 4° C. The cell pellet was washed in cold 1×PBS supplemented with 2.5% FBS before being passed again through in a 70-μm nylon cell strainer and counted. Counted cells were plated on non-tissue culture 10-cm plates at 5-10×10^6 cells per plate in DMEM supplemented with 10% FBS and 15-20% L-cell media. Cells were incubated at 37° C. for 6 days before replating and assaying as indicated.
LDH cytotoxicity and immunoblotting assays. HEK293T cells were transiently transfected and treated with inhibitors as indicated. MV4;11, OCI AML2, THP-1, and RAW264.7 cells were plated in 12-well culture plates at 5×10^5 cells/well and treated as indicated. Supernatants were analyzed for LDH activity using the Pierce LDH Cytotoxicity Assay Kit (Life Technologies). LDH activity was quantified relative to a lysis control where cells were lysed in 80 μL of a 9% Triton X-100 solution. For immunoblotting, cells were washed 2× in PBS (pH=7.4), resuspended in PBS, and lysed by sonication. Protein concentrations were determined and normalized using the DCA Protein Assay kit (Bio-Rad). The samples were separated by SDS-PAGE, immunoblotted, and visualized using the Odyssey Imaging System (Li-Cor).

recombinant human PEPD, sequence (P12955 whole entry): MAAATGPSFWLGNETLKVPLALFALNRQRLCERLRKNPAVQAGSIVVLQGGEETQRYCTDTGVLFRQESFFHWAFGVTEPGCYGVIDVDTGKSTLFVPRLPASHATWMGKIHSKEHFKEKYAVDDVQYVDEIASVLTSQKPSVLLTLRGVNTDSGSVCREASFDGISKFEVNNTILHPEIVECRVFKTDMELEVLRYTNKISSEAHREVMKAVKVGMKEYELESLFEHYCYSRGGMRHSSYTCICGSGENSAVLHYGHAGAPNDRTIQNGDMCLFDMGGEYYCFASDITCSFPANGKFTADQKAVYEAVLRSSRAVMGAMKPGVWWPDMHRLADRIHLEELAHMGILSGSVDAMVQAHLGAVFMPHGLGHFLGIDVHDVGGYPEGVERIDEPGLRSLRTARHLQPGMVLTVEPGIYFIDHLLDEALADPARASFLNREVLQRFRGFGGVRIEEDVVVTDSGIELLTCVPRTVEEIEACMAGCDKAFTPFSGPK

In the case of `CC(C)C[C@@H](N)[C@H](O)C(=O)N1CCC[C@H]1C(=O)OC(C)(C)C` [CQ34, tert-butyl ((2S,3R)-3-amino-2-hydroxy-5-methylhexanoyl)-L-prolinate], the “PEPD inhibition (in words)” value (recombinant human PEPD) is reported as “inhibited PEPD and XPNPEP1 inhibitors similarly”, the “XPNPEP1 inhibition (in words)” value (XPNPEP1) is reported as “inhibited PEPD and XPNPEP1 inhibitors similarly” and the “cytotoxicity to MV4;11 cells (in words)” value (MV4;11 WT cells) is reported as “slightly more toxic”. The “stability in cell culture supernatants (in words)” value [1] was “considerably more stable than CQ31 or CQ94” and the “time after which completely hydrolyzed” value ([1]; cell culture supernatants) was ≤ 8 h.
In the case of `COC(=O)[C@@H](NC(=O)[C@@H]1CCCN1C(=O)[C@@H](O)[C@H](N)CC(C)C)C(C)C` [CQ78, Methyl ((2S,3R)-3-amino-2-hydroxy-5-methylhexanoyl)-L-prolyl-L-valinate], the IC50 (recombinant human PEPD; 50 nM recombinant human PEPD, Ala-Pro 40 μM, 25° C.) is reported as 1200 nM, the IC50 (XPNPEP1; XPNPEP1 3.5 nM, substrate 100 μM, 60 mins) is reported as 41 µM and the IC50 (MV4;11 WT cells; Homo sapiens, MV4-11) is reported as 450 nM. For the same compound, the IC50 (MV4;11 CASP1-/- cells) was > 20 µM and the “lytic cell death by uptake of propidium iodide” value (OCI-AML2 cells) was “more rapid lytic cell death”.
In the case of `CC(C)[C@H](N)C(=O)N1CCC[C@H]1B(O)O` [VbP, Val-boroPro, reference compound], the “cell death in N/TERT-1 keratinocytes” value (N/TERT-1 keratinocytes) is reported as “induced cell death” and the “pyroptosis (LDH release and GSDMD cleavage)” value [2] is reported as “induced pyroptosis”.

Source: patent publication US20250368624A1, “M24B AMINOPEPTIDASE INHIBITORS FOR CARD8 INFLAMMASOME ACTIVATION” (Memorial Sloan-Kettering Cancer Center, priority 2022, published 2025)
